Results: patent US6869929B2, “Use of transcription factors for treating inflammation and other diseases” (Beth Israel Deaconess Medical Center, priority 2000, dated 2005)

What was measured:
Type in all cases: cell-based, human
ESE-1 [1] = assay: ESE-1 mRNA RT-PCR in glioma cells (U-138 MG, U-373 MG); conditions: U-138 MG and U-373 MG glioma cells
Experimental: (§1) U-87 Mg and U-138 Mg (human glioma), THP-1 (human monocytic), RAW 264.7 (murine monocytic), LB-12 (human osteoblast-like large T antigen transformed bone marrow stromal cells), and human chondrocytes were grown and treated with cytokines as described (Apperley, J., et al. 1990. J Bone Mineral Res. 5:S93; Goldring, M. B., et al. 1994. J Clin Invest 94:2307-16; Goldring, S. R., et al. 1983. J Bone Joint Surg 65:575-84; Libermann, T. A., et al. 1987. Embo J. 6:1627-1632).
cDNAs were generated from 1 μg of total RNA using Ready-To-Go™ You-prime First-Strand Beads (Amersham Pharmacia Biotech Inc). RT-PCR amplifications of 0.1 μg cDNA were carried out using a MJResearch thermal cycler PTC-100 as follows: 5 min at 94° C., 20-37 cycles of 30 sec at 94° C., 30 sec at 56° C., and 30 sec at 72° C., followed by 5 min at 72° C. (Oettgen, P., et al. 2000, J Biol Chem 275:1216-25). The sequences of the human ESE-1 primers and the primers for human GAPDH were as described (Oettgen, P., et al. 1999, J Biol Chem 274:29439-52).
U-138 MG cells were infected with the IκB adenovirus (kindly provided by Fionula Brennan) (Bondeson, J., et al. 1999, Proc Natl Acad Sci U S A 96:5668-73) for 1 hour in serum-free medium using a multiple of infection of 1000. After infection the cells were washed with medium and incubated for 16 hours in DMEM containing 10% fetal calf serum in the absence or presence of IL-1β. […]

ESE-1 [2] = assay: ESE-1 mRNA Northern blot in LB-12 osteoblasts; conditions: LB-12 cells; 1, 2, 6, 24 hours
Experimental: as §1
Total RNA was harvested using QIAshreder (Qiagen) and RNeasy® Mini Kit (Quiagen) or Trizol (Gibco BRL). Poly A^+ RNA was prepared with MicroPoly(A) Pure (Ambion). Northern blots (5 μg total RNA) were hybridized using a full length ESE-1 cDNA probe as described (Oettgen, P., et al. et al. 1997, Mol Cell Biol 17:4419-33.).
Osteoblasts, the bone cells responsible for bone formation, represent another connective tissue cell target of inflammatory cytokines in joint disorders (Bogoch, E. R., and E. Moran. 1998, Can J Surg 41:264-71). […] LB-12 cells were incubated for different times in the absence or presence of IL-1β. […] Since the rapid, but transient induction of ESE-1 resembles that of immediate early genes, we tested the effect of the protein synthesis inhibitor cycloheximide which superinduces expression of certain genes due to mRNA stabilization. Cycloheximide alone had no effect, but superinduced IL-1β-mediated ESE-1 mRNA expression (FIG. 11d).

ESE-1 promoter = ESE-1 promoter luciferase construct (pXP2/ESE-1) transfection; conditions: U-138 MG cells; 16 h
Experimental: Cotransfections of 3-8×10^5 cells were carried out with 600 ng reporter gene construct DNA and 200 ng expression vector DNA using LipofectAMINE PLUS (Gibco-BRL) for 16 hours as described (Oettgen, P., et al. et al., 1997, Mol Cell Biol 17:4419-33). Transfections were performed independently in duplicate and repeated 3 to 4 times with different plasmid preparations with similar results.
To investigate the molecular mechanism by which IL-1 β and LPS regulate ESE-1 expression, we examined the response of an ESE-1 promoter luciferase construct after transfection using two cytokine responsive non-epithelial cell types, U-138 MG human glial cells and RAW 264.7 cells, a murine macrophage cell line (Oettgen, P., et al. 1999, Genomics 55:358-62). Whereas the parental pXP2 vector was not stimulated by IL-1β, in U-138 MG cells, IL-1β increased ESE-1 promoter activity up to 5-fold (FIG. 12a). Similarly, LPS enhanced ESE-1 promoter activity ˜9-fold in RAW 264.7 cells (FIG. 12b).

Substance: IL-1β: interleukin-1 beta, proinflammatory cytokine
- ESE-1 expression (ESE-1 [1]): rapidly induced transient expression
- ESE-1 mRNA expression, agent alone (ESE-1 [2]): rapidly induced
- increase in ESE-1 promoter activity (ESE-1 promoter): up to 5 fold
